In PMC6273431, “The Structure–Antimicrobial Activity Relationships of a Promising Class of the Compounds Containing the N-Arylpiperazine Scaffold” (Molecules, 2016):
Read-outs that look alike come from different tables or passages of the source.

Experiments:
[1] = design: method as in PMID 16209439, PMID 16209439, doi:10.2478/s11696-006-0007-y; conditions: octan-1-ol/phosphate buffer (pH = 7.4); cited from earlier work
[2] = test system: Mycobacterium avium subsp. paratuberculosis CIT03; assay: antimycobacterial MIC, MB broth, alamarBlue; format: cell-based; conditions: 264 h, read-out: MIC MAP
Experimental: The Mycobacterium avium subsp. paratuberculosis CIT03 strain was grown in the Middlebrook (MB) broth, supplemented with the Oleic-Albumin-Dextrose-Catalase Supplement (OADC, Becton Dickinson, Oxford, UK) and the mycobactin J (2 μg/mL). The commercially available siderophore mycobactin J reduced the incubation period of M. avium subsp. paratuberculosis in a complex medium when compared to the medium containing the mycobactin P as a growth factor.
The identification of the isolate was performed using biochemical and molecular protocols. At a log phase growth, a culture sample (10 mL) was centrifuged at 15,000 rpm/20 min using a bench top centrifuge (Model CR 4-12, Jouan Inc., London, UK). Following removal of the supernatant, the pellet was washed in fresh Middlebrook 7H9GC broth and re-suspended in fresh supplemented MB broth (10 mL). The turbidity was adjusted to match the McFarland standard No. 1 containing approximately 3.0 × 10^8 Colony Forming Units (CFU) with the MB broth. Further 1:20 dilution of the culture was performed in the MB broth. The susceptibility of given mycobacterial species was investigated in a 96-well plate format. In those experiments, sterile deionised water (300 μL) was added to all outer-perimeter wells of the plates to minimize an evaporation of the medium in the test wells during the incubation process. Each evaluated compound (100 μL) was incubated with the mycobacterial species (100 μL). The dilutions of a particular compound were prepared in triplicate. For all inspected derivatives, final concentrations ranged from 1000 μg/mL to 60 μg/mL. All compounds were prepared in dimethyl sulfoxide (DMSO; Sigma-Aldrich, Irvine, UK) and subsequent dilutions were made in the supplemented MB broth. The plates were sealed with a parafilm and incubated at 37 °C for 11 days. Following the incubation, a 10% addition of a water‑soluble dye, the alamarBlue reagent (AbD Serotec, Kidlington, UK), was mixed into each well. Absorbance readings at 570 nm and 600 nm were taken, initially for background subtraction and after 24 h re-incubation. The subtraction is necessary for strongly coloured compounds, where the colour may interfere with the interpretation of any colour change. For non-interfering compounds, a blue colour in a well was interpreted as an absence of a growth and a pink colour was scored as a growth.
The minimum inhibitory concentration (MIC) was defined as the lowest concentration of the compound at which no visible bacterial growth was observed. In other words, the MIC was the lowest concentration that prevented a visual colour change from blue to pink. The MIC value has been routinely and widely used in bacterial assays and it has been a standard detection limit according to the Clinical and Laboratory Standards Institute. The clinically used antimycobacterial drugs INH and RIF were applied as the standards.

[3] = test system: M. kansasii DSM 44162; assay: antimycobacterial MIC, broth dilution micromethod; format: cell-based; conditions: Mycobacterium kansasii, DSM44162, 168 h, 7 days at 37 °C
[4] = test system: Candida parapsilosis CCM 8260; assay: candidacidal MIC, microdilution method; format: cell-based; conditions: Lodderomyces parapsilosis, CCM8260, 48 h, 37 °C
Experimental: (§1) In order to provide a look into the potential usefulness of the derivatives 5a–l as the candidates for a development of anti-yeast (candidacidal) agents, they were in vitro tested against Candida albicans CCM 8261 (CA 8261), C. krusei CCM 8271 (CK 8271) and C. parapsilosis CCM 8260 (CP 8260). The yeasts were obtained from the Czech Collection of Microorganisms (Masaryk University, Faculty of Science, Brno, Czech Republic). They were grown and kept on Sabouraud agar (Oxoid Limited, Basingstoke, UK).
(§2) For the screening, the microdilution method according to the Antimicrobial Susceptibility Testing Protocols was applied. The inoculum was prepared from the cultures grown on Sabouraud agar. With the sterile solution of NaCl, the inoculum was prepared to the 0.5 McFarland units using the Densi-La-Meter densitometer (LIAP, Riga, Latvia) and diluted a thousand‑fold with the Roswell Park Memorial Institute (RPMI) 1640 medium (Sigma-Aldrich, Darmstadt, Germany). Prepared suspension was used for an inoculation of microtitre plates. Final concentration in wells ranged from 5.0 × 10^2 CFU/mL to 2.5 × 10^3 CFU/mL. […] For the determination of the MICs, the stock solutions of all the tested compounds were diluted in the microtitre checkerboard to the final concentration varying from 128 μg/mL to 0.125 μg/mL. Drug-free control, sterility control and the control consisted of a medium and DMSO alone were included. Inoculated microtitre plates were incubated for 48 h in the darkness at 37 °C in an aerobic atmosphere. The results were estimated against static light.
(§3) The MIC was defined as the lowest concentration of the tested compound at which no visible growth was observed. To ensure reproducibility of the results, each candidacidal MIC assay was performed triplicate on separate occasions. It was important to note that all the MICs from the in vitro antimicrobial screening were expressed in μg/mL units and were available in Tables S3 and S4 (Supplementary Materials).

[5] = test system: Candida albicans CCM 8261; assay: candidacidal MIC, microdilution method; format: cell-based; conditions: Candida albicans, CCM8261, 48 h, 37 °C
Experimental: as §1, §2, §3

[6] = test system: Candida krusei CCM 8271; assay: candidacidal MIC, microdilution method; format: cell-based; conditions: Pichia kudriavzevii, CCM8271, 48 h, 37 °C
Experimental: as §1, §2, §3

[7] = test system: M. smegmatis ATCC 700084; assay: antimycobacterial MIC, broth dilution micromethod; format: cell-based; conditions: Mycolicibacterium smegmatis, ATCC700084, 72 h, 3 days at 37 °C
[8] = design: method as in PMID 16209439, PMID 16209439; conditions: potentiometric titration; cited from earlier work
[9] = test system: Escherichia coli ATCC 25922; assay: antibacterial MIC, microtitration broth method; format: cell-based; conditions: 37 °C
Experimental: (§4) Prior to the testing, each strain was transferred into a nutrient agar (Oxoid Limited, Basingstoke, UK), which was enriched with 5% defibrinated bovine blood.
(§5) The MICs were determined by the microtitration broth method in the cation-adjusted Mueller-Hinton broth (Becton Dickinson, Oxford, UK) according to an international interdisciplinary Clinical Laboratory Standard Institute guidelines.
(§6) The checkerboard was inoculated by the bacterial inocula, which were prepared in a phosphate buffered saline solution with the pH = 7.2–7.3 to simulate physiological pH. The final concentration of each inoculum in the final volume of 100 μL in the wells was approximately 7.5 × 10^6 CFU/mL. Drug-free controls, sterility controls and the controls consisted of the broth with DMSO were included. The determination of the results was performed visually after 24 h of static incubation in the darkness at 37 °C in an aerobic atmosphere.
(§7) To ensure reproducibility, each antibacterial MIC assay was performed triplicate on separate occasions.

[10] = test system: methicillin-resistant Staphylococcus aureus 63718; assay: antibacterial MIC, microtitration broth method; format: cell-based; conditions: MRSA, 37 °C
Experimental: as §4, §5, §6, §7

[11] = test system: Enterococcus faecalis ATCC 29212; assay: antibacterial MIC, microtitration broth method; format: cell-based; conditions: 37 °C
Experimental: as §4, §5, §6, §7

[12] = test system: Staphylococcus aureus ATCC 29213; assay: antibacterial MIC, microtitration broth method; format: cell-based; conditions: 37 °C
Experimental: as §4, §5, §6, §7

[13] = test system: M. marinum CAMP 5644; assay: antimycobacterial MIC, broth dilution micromethod; format: cell-based; conditions: Mycobacterium marinum, CAMP5644, 504 h, 21 days at 28 °C

| SMILES | log Pexp [1] | MIC ([2]; 37 °C, 11 days) | MIC [2] | MIC [3] | MIC ([3]; Table S3) | MIC [4] | MIC ([4]; Table S4) | MIC [5] | MIC ([5]; Table S4) | MIC [6] | MIC ([6]; Table S4) | MIC [7] | MIC ([7]; Table S3) | pKa [8] | MIC ([9]; ATCC25922, 24 h) | MIC ([9]; ATCC25922, Table S4, 24 h) | MIC ([10]; 24 h) | MIC ([10]; Table S4, 24 h) | MIC ([11]; ATCC29212, 24 h) | MIC ([11]; ATCC29212, Table S4, 24 h) | also measured |
| --- | --- | --- | --- | --- | --- | --- | --- | --- | --- | --- | --- | --- | --- | --- | --- | --- | --- | --- | --- | --- | --- |
| CCOc1cccc(NC(=O)OCC(O)CN2CCN(c3cccc(C(F)(F)F)c3)CC2)c1.Cl (stereo not drawn) [Compound 5d, 1-[3-(3-ethoxyphenylcarbamoyl)oxy-2-hydroxypropyl]-4-(3-trifluoromethylphenyl)piperazin-1-ium chloride] | 3.72 | 1980 µM | 1000 µg/mL | 31.8 µM | 16 µg/mL | > 254 µM | > 128 µg/mL | > 254 µM | > 128 µg/mL | > 254 µM | > 128 µg/mL | 127 µM | 64 µg/mL | 5.35 | > 508 µM | > 256 µg/mL | > 508 µM | > 256 µg/mL | > 508 µM | > 256 µg/mL | MIC ([12]; ATCC29213, 24 h): > 508 µM; MIC ([12]; ATCC29213, Table S4, 24 h): > 256 µg/mL; MIC [13]: 127 µM; MIC ([13]; Table S3): 64 µg/mL |
| COc1ccc(NC(=O)OCC(O)CN2CCN(c3cccc(C(F)(F)F)c3)CC2)cc1 (stereo not drawn) [Compound 5e, 1-{2-hydroxy-3-(4-methoxyphenylcarbamoyl)oxy)propyl}-4-(3-trifluoromethylphenyl)piperazin-1-ium chloride] | 3.60 | 1020 µM | 500 µg/mL | 65.3 µM | 32 µg/mL | > 261 µM | > 128 µg/mL | > 261 µM | > 128 µg/mL | > 261 µM | > 128 µg/mL | 523 µM | 256 µg/mL | 5.66 | > 523 µM | > 256 µg/mL | > 523 µM | > 256 µg/mL | > 523 µM | > 256 µg/mL | MIC ([12]; ATCC29213, 24 h): > 523 µM; MIC ([12]; ATCC29213, Table S4, 24 h): > 256 µg/mL; MIC [13]: 65.3 µM; MIC ([13]; Table S3): 32 µg/mL |
| CCOc1ccc(NC(=O)OCC(O)CN2CCN(c3cccc(C(F)(F)F)c3)CC2)cc1 (stereo not drawn) [Compound 5f] | 3.71 | 992 µM | 500 µg/mL | 508 µM | 256 µg/mL | > 254 µM | > 128 µg/mL | > 254 µM | > 128 µg/mL | > 254 µM | > 128 µg/mL | 508 µM | 256 µg/mL | 5.69 | > 508 µM | > 256 µg/mL | > 508 µM | > 256 µg/mL | > 508 µM | > 256 µg/mL | MIC ([12]; ATCC29213, 24 h): > 508 µM; MIC ([12]; ATCC29213, Table S4, 24 h): > 256 µg/mL; MIC [13]: 254 µM; MIC ([13]; Table S3): 128 µg/mL |
| COc1ccccc1NC(=O)OCC(O)CN1CCN(c2ccc(F)cc2)CC1 (stereo not drawn) [Compound 5g] | 3.61 | 2270 µM | 1000 µg/mL | 145 µM | 64 µg/mL | > 291 µM | > 128 µg/mL | > 291 µM | > 128 µg/mL | > 291 µM | > 128 µg/mL | 582 µM | 256 µg/mL | 6.73 | > 582 µM | > 256 µg/mL | > 582 µM | > 256 µg/mL | > 582 µM | > 256 µg/mL | MIC ([12]; ATCC29213, 24 h): > 582 µM; MIC ([12]; ATCC29213, Table S4, 24 h): > 256 µg/mL; MIC [13]: 145 µM; MIC ([13]; Table S3): 64 µg/mL |
| CCOc1ccccc1NC(=O)OCC(O)CN1CCN(c2ccc(F)cc2)CC1 (stereo not drawn) [Compound 5h] | 3.90 | 1100 µM | 500 µg/mL | 282 µM | 128 µg/mL | > 282 µM | > 128 µg/mL | > 282 µM | > 128 µg/mL | > 282 µM | > 128 µg/mL | 564 µM | 256 µg/mL | 6.58 | > 564 µM | > 256 µg/mL | > 564 µM | > 256 µg/mL | > 564 µM | > 256 µg/mL | MIC ([12]; ATCC29213, 24 h): > 564 µM; MIC ([12]; ATCC29213, Table S4, 24 h): > 256 µg/mL; MIC [13]: 282 µM; MIC ([13]; Table S3): 128 µg/mL |
| COc1cccc(NC(=O)OCC(O)CN2CCN(c3ccc(F)cc3)CC2)c1 (stereo not drawn) [Compound 5i] | 3.25 | 1140 µM | 500 µg/mL | 145 µM | 64 µg/mL | > 291 µM | > 128 µg/mL | > 291 µM | > 128 µg/mL | > 291 µM | > 128 µg/mL | 582 µM | 256 µg/mL | 6.55 | > 582 µM | > 256 µg/mL | > 582 µM | > 256 µg/mL | > 582 µM | > 256 µg/mL | MIC ([12]; ATCC29213, 24 h): > 582 µM; MIC ([12]; ATCC29213, Table S4, 24 h): > 256 µg/mL; MIC [13]: 291 µM; MIC ([13]; Table S3): 128 µg/mL |
